Experimental data reported in publication PMC7845594, “Novel Immune Modulators Enhance Caenorhabditis elegans Resistance to Multiple Pathogens” (mSphere, 2021).

Columns and labels:
C. elegans transcriptome = experiment: Transcriptome profiling (Affymetrix microarrays), differentially expressed genes; type: in vivo, Caenorhabditis elegans
Experimental: To gain additional insight into the effect of LK molecules on C. elegans, young-adult, wild-type worms were treated with each drug at 100 µM for 8 h in the absence of pathogen. RNA was collected, and transcriptome profiling was performed.
Data were determined using Affymetrix microarrays, as described in Materials and Methods. Download Table S3, XLSX file, 0.07 MB.
Transcriptome profiling was performed on ∼6,000 wild-type, young adult worms incubated with either LK molecules or DMSO for 8 h. RNA isolation was performed using TRIzol extraction, followed by cleanup using RNeasy columns according to the manufacturer’s protocol. Each condition was analyzed in triplicate. Microarray data have been deposited in the GEO database, accession number GSE137516. […] Clustering and generation of the heat map was performed using Cluster 3.0 ([98]) and Treeview ([99]), respectively. Fold change of genes were normalized to average fold change of that gene over all clustered conditions. Genes and conditions were clustered using Euclidean distance and average linkages. […] Microarray data for non-LK molecules were collected from GEO omnibus. WormEXP was used as a secondary method for confirming statistical significance of potential pathways stimulated by each of the LK molecules ([100]). Gene ontologies were generated using DAVID ([101], [102]).

[1] = test system: P. aeruginosa strain PA14; experiment: MIC assay (bacterial growth, no worms); type: cell-based, Pseudomonas aeruginosa
Experimental: For the first round of characterization, 69 novel small molecules previously selected on the basis of their ability to improve C. elegans survival during exposure to P. aeruginosa in liquid ([14]) were tested for the ability to interfere with bacterial growth. MICs were determined for each compound by growing P. aeruginosa strain PA14 in static culture in 384-well plates with serial 2-fold dilutions of compounds. No worms were used in these assays. Next, effective rescue concentrations (EC; defined as the minimum concentration that results in statistically significant survival, compared to dimethyl sulfoxide [DMSO]) ([15], [18]) were determined for each compound using the standard P. aeruginosa liquid killing assay. Sterile glp-4(bn2) worms were used in all liquid-based assays to limit artifacts (i.e., unlaid eggs will hatch and cause matricide).
Plates were allowed to grow for 24 h at 37°C without shaking. Growth was scored visually on the basis of turbidity. At least three biological replicates were performed.

CNC(=O)Oc1c(Br)cc2sc(=O)oc2c1Br [LK34]
Fold Change (C. elegans transcriptome; upregulated gene W05H9.1, Affy_ID 179806_at): 2.462 | Fold Change (C. elegans transcriptome; upregulated gene W06D4.1, Affy_ID 172046_x_at): 3.704 | Fold Change (C. elegans transcriptome; upregulated gene W06D12.3, Affy_ID 192357_at): 7.111 | Fold Change (C. elegans transcriptome; upregulated gene W06H8.1, Affy_ID 185746_s_at): 2.211 | Fold Change (C. elegans transcriptome; upregulated gene W09C3.1, Affy_ID 192187_s_at): 2.464 | Fold Change (C. elegans transcriptome; upregulated gene W09D10.2, Affy_ID 188190_at): 2.479 | Fold Change (C. elegans transcriptome; upregulated gene Y17G7B.5, Affy_ID 191321_s_at): 2.063 | Fold Change (C. elegans transcriptome; upregulated gene Y19D10A.9, Affy_ID 180592_s_at): 3.023 | Fold Change (C. elegans transcriptome; upregulated gene Y22F5A.4, Affy_ID 182989_at): 2.493 | Fold Change (C. elegans transcriptome; upregulated gene Y22F5A.5, Affy_ID 183028_s_at): 6.999 | Fold Change (C. elegans transcriptome; upregulated gene Y25C1A.13, Affy_ID 192131_s_at): 2.041 | Fold Change (C. elegans transcriptome; upregulated gene Y37A1B.5, Affy_ID 182849_at): 3.394 | Fold Change (C. elegans transcriptome; upregulated gene Y37D8A.3, Affy_ID 182387_at): 3.237 | Fold Change (C. elegans transcriptome; upregulated gene Y37D8A.6, Affy_ID 181665_at): 3.132 | Fold Change (C. elegans transcriptome; upregulated gene Y37E3.16, Affy_ID 173045_at): 3.373 | Fold Change (C. elegans transcriptome; upregulated gene Y38E10A.14, Affy_ID 175449_s_at): 19.1307 | Fold Change (C. elegans transcriptome; upregulated gene Y38F1A.9, Affy_ID 183759_at): 3.202 | Fold Change (C. elegans transcriptome; upregulated gene Y39G10AR.10, Affy_ID 176486_at): 3.752 | Fold Change (C. elegans transcriptome; upregulated gene Y40B10A.6, Affy_ID 176851_at): 72.4303 | Fold Change (C. elegans transcriptome; upregulated gene Y41C4A.16, Affy_ID 194230_x_at): 2.854 | Fold Change (C. elegans transcriptome; upregulated gene Y41D4B.10, Affy_ID 176055_at): 12.5937 | Fold Change (C. elegans transcriptome; upregulated gene Y41D4B.16, Affy_ID 176044_at): 3.687 | Fold Change (C. elegans transcriptome; upregulated gene Y42G9A.3, Affy_ID 184843_at): 2.448 | Fold Change (C. elegans transcriptome; upregulated gene Y45F3A.3, Affy_ID 190484_at): 2.142 | Fold Change (C. elegans transcriptome; upregulated gene Y45F10C.4, Affy_ID 186062_at): 3.365 | Fold Change (C. elegans transcriptome; upregulated gene Y45G12C.2, Affy_ID 187084_at): 44.4121 | Fold Change (C. elegans transcriptome; upregulated gene Y47D3B.10, Affy_ID 175803_at): 16.792 | Fold Change (C. elegans transcriptome; upregulated gene Y47H9C.5, Affy_ID 191065_s_at): 3.655 | Fold Change (C. elegans transcriptome; upregulated gene Y51H7C.1, Affy_ID 186349_at): 10.7753 | Fold Change (C. elegans transcriptome; upregulated gene Y53C10A.5, Affy_ID 185387_s_at): 2.3 | Fold Change (C. elegans transcriptome; upregulated gene Y53F4B.33, Affy_ID 191337_at): 3.746 | Fold Change (C. elegans transcriptome; upregulated gene Y53G8B.2, Affy_ID 184714_s_at): 12.3167 | Fold Change (C. elegans transcriptome; upregulated gene Y55B1AR.1, Affy_ID 187047_at): 6.102 | Fold Change (C. elegans transcriptome; upregulated gene Y57A10A.23, Affy_ID 187073_at): 4.099 | Fold Change (C. elegans transcriptome; upregulated gene Y57G7A.1, Affy_ID 184451_at): 2.494 | Fold Change (C. elegans transcriptome; upregulated gene Y66D12A.24, Affy_ID 175124_at): 2.157 | Fold Change (C. elegans transcriptome; upregulated gene Y73F4A.1, Affy_ID 183741_s_at): 2.361 | Fold Change (C. elegans transcriptome; upregulated gene Y77E11A.2, Affy_ID 187013_at): 2.74 | Fold Change (C. elegans transcriptome; upregulated gene Y105C5B.15, Affy_ID 186799_at): 3.153 | Fold Change (C. elegans transcriptome; upregulated gene Y105C5B.9, Affy_ID 185162_at): 4.733 | Fold Change (C. elegans transcriptome; upregulated gene Y106G6D.6, Affy_ID 185498_at): 6.605 | Fold Change (C. elegans transcriptome; upregulated gene Y110A2AL.4, Affy_ID 175367_s_at): 14.9078 | Fold Change (C. elegans transcriptome; upregulated gene ZC64.2, Affy_ID 177670_at): 2.001 | Fold Change (C. elegans transcriptome; upregulated gene ZC155.1, Affy_ID 173222_s_at): 2.272 | Fold Change (C. elegans transcriptome; upregulated gene ZC455.4, Affy_ID 191057_s_at): 5.011 | Fold Change (C. elegans transcriptome; upregulated gene ZK6.10, Affy_ID 175170_s_at): 5.465 | Fold Change (C. elegans transcriptome; upregulated gene ZK455.1, Affy_ID 193891_at): 2.692 | Fold Change (C. elegans transcriptome; upregulated gene ZK512.7, Affy_ID 186714_s_at): 3.907 | Fold Change (C. elegans transcriptome; upregulated gene ZK550.6, Affy_ID 186811_s_at): 2.631 | Fold Change (C. elegans transcriptome; upregulated gene ZK637.13, Affy_ID 173475_s_at): 3.509 | Fold Change (C. elegans transcriptome; upregulated gene ZK688.6, Affy_ID 176040_s_at): 2.439 | Fold Change (C. elegans transcriptome; upregulated gene ZK770.3, Affy_ID 180366_s_at): 3.016 | Fold Change (C. elegans transcriptome; upregulated gene ZK829.9, Affy_ID 189819_s_at): 5.03 | Fold Change (C. elegans transcriptome; upregulated gene ZK899.2, Affy_ID 178376_s_at): 4.028 | Fold Change (C. elegans transcriptome; upregulated gene ZK1058.6, Affy_ID 188607_at): 45.3463 | Fold Change (C. elegans transcriptome; upregulated gene ZK1251.2, Affy_ID 188538_at): 5.974 | Fold Change (C. elegans transcriptome; upregulated gene ZK1290.8, Affy_ID 184676_s_at): 4.32 | MIC ([1]; Pseudomonas aeruginosa, PA14): > 522 µM | MIC / EC ([1]; ratio of MIC to EC, P. aeruginosa PA14): > 56.1
